Test [1] has as its target T1, HLA-DRB1*01:01 (Homo sapiens, UniProt P01903+P01911, A100R/D57E/F55L/F60I/F76Y/I96L/L162R/M171V/P40L/Q125E/R42F/V115G/Y59C).
T1 construct: EBV transformed homozygous cell lines were used as sources of MHC molecules; endogenous in cells; host or cells: EBV transformed homozygous cell lines
Kind of test: HLA class II peptide binding, inhibition of radiolabeled peptide binding to purified MHC.

Test [2] addresses T2, HLA-DRB1*04:01 (Homo sapiens, UniProt P01903+P01911, A100K/A169T/F76Y/I96L/K127E/L162R/M171V/N62H/P40V/Q125Y/R42H/S133A/S149N/S66Y/V115G/V209L/W38E).
T2 construct: EBV transformed homozygous cell lines were used as sources of MHC molecules; endogenous in cells; host or cells: EBV transformed homozygous cell lines
The description is as above.

Setting [3] is: citrullinated 15-mer (X), purified MHC, inhibition of radiolabeled peptide binding, dash = IC50 >40,000 nM, read-out: DRB1*01:01 binding capacity, Cit peptide (IC50 nM).
Where [4] appears, read: citrullinated 15-mer (X), purified MHC, inhibition of radiolabeled peptide binding, dash = IC50 >40,000 nM, read-out: DRB1*04:01 binding capacity, Cit peptide (IC50 nM).
The mark [5] stands for this setting: citrullinated 15-mer peptide (X = citrulline), purified HLA-DRB1*01:01, read-out: DRB1*01:01 binding capacity, Cit peptide (IC50 nM).
Setting [6] is: citrullinated 15-mer peptide (X = citrulline), purified HLA-DRB1*04:01, read-out: DRB1*04:01 binding capacity, Cit peptide (IC50 nM).
[7] abbreviates: citrullinated peptide as listed (X at Cit position), read-out: DRB1*01:01 binding capacity Cit peptide (IC50 nM).
Where [8] appears, read: value of the wild-type (non-citrullinated) counterpart of the listed peptide, read-out: DRB1*01:01 binding capacity WT peptide (IC50 nM).
[9] abbreviates: citrullinated peptide as listed (X at Cit position), read-out: DRB1*04:01 binding capacity Cit peptide (IC50 nM).
Where [10] appears, read: value of the wild-type (non-citrullinated) counterpart of the listed peptide, read-out: DRB1*04:01 binding capacity WT peptide (IC50 nM).

Like-named read-outs stand apart in the source and are kept apart here. Square brackets hold non-standard residues; d marks the D form. Peptide text beside a SMILES is read from it. Cit = NC(=O)NCCC[C@H](N)C(=O)O

What is called IC50 is the concentration that inhibits the measured activity by half.

On to `CC(C)C[C@H](NC(=O)[C@H](CCC(N)=O)NC(=O)[C@H](CC(=O)O)NC(=O)[C@@H](NC(=O)[C@H](CCC(N)=O)NC(=O)[C@H](CCCNC(N)=O)NC(=O)[C@H](CCCNC(=N)N)NC(=O)[C@H](CC(C)C)NC(=O)[C@@H](N)CCC(=O)O)C(C)C)C(=O)N[C@H](C(=O)N[C@@H](CC(N)=O)C(=O)N[C@@H](CC(=O)O)C(=O)N[C@@H](CCCCN)C(=O)N[C@@H](C)C(=O)N[C@@H](CCCNC(=N)N)C(=O)O)[C@@H](C)O` [ELRXQVDQLTNDKAR] (H-ELR[Cit]QVDQLTNDKAR-OH), for which the IC50 in test [1] (setting [3]) is 2240 nM; in test [2] (setting [4]) it was 11000 nM.
As to `CC(C)C[C@H](NC(=O)[C@H](CCC(N)=O)NC(=O)[C@H](CC(=O)O)NC(=O)[C@@H](NC(=O)[C@H](CCC(N)=O)NC(=O)[C@H](CCCNC(=N)N)NC(=O)[C@H](CCCNC(N)=O)NC(=O)[C@H](CC(C)C)NC(=O)[C@@H](N)CCC(=O)O)C(C)C)C(=O)N[C@H](C(=O)N[C@@H](CC(N)=O)C(=O)N[C@@H](CC(=O)O)C(=O)N[C@@H](CCCCN)C(=O)N[C@@H](C)C(=O)N[C@@H](CCCNC(=N)N)C(=O)O)[C@@H](C)O` [ELXRQVDQLTNDKAR] (H-EL[Cit]RQVDQLTNDKAR-OH), the values for the IC50 in test [1] (setting [3]) and in test [2] (setting [4]) were 614 nM and 13400 nM, respectively.
Regarding `CSCC[C@H](NC(=O)[C@@H]1CCCN1C(=O)CNC(=O)[C@@H]1CCCN1C(=O)[C@H](CO)NC(=O)CNC(=O)[C@H](CC(N)=O)NC(=O)[C@@H](N)CCC(=O)O)C(=O)NCC(=O)N1CCC[C@H]1C(=O)N[C@@H](CCCNC(N)=O)C(=O)NCC(=O)N[C@@H](CC(C)C)C(=O)N1CCC[C@H]1C(=O)NCC(=O)O` [ENGSPGPMGPXGLPG] (H-ENGSPGPMGP[Cit]GLPG-OH), the figures for the 50% inhibitory concentration (IC50) in test [1] (setting [5]) and in test [2] (setting [6]) were 31400 nM and above 40000 nM, respectively.
In the case of `CC(C)C[C@H](NC(=O)[C@H](CCCNC(N)=O)NC(=O)[C@H](CO)NC(=O)[C@H](CCCCN)NC(=O)CNC(=O)[C@H](CCC(N)=O)NC(=O)CNC(=O)[C@H](CCCCN)NC(=O)[C@H](CC(C)C)NC(=O)[C@H](CCC(N)=O)NC(=O)[C@@H](N)CCC(=O)O)C(=O)NCC(=O)N[C@@H](CC(=O)O)C(=O)N[C@@H](CC(C)C)C(=O)N[C@@H](Cc1ccc(O)cc1)C(=O)O` [EQLKGQGKSXLGDLY], the IC50 is 5380 nM in test [1] (setting [3]) and above 40000 nM in test [2] (setting [4]).
In the case of `C[C@H](NC(=O)CNC(=O)[C@H](C)NC(=O)[C@@H]1CCCN1C(=O)CNC(=O)[C@@H](NC(=O)[C@H](CCCNC(=N)N)NC(=O)CNC(=O)[C@H](CCCNC(=N)N)NC(=O)[C@@H](N)CCC(=O)O)[C@@H](C)O)C(=O)N[C@@H](C)C(=O)NCC(=O)N[C@@H](C)C(=O)N[C@@H](CCCNC(N)=O)C(=O)NCC(=O)O` [ERGRTGPAGAAGAXG] (H-ERGRTGPAGAAGA[Cit]G-OH), the IC50 in test [1] (setting [5]) is 1120 nM; in test [2] (setting [6]) it was above 40000 nM.
On the same counts, the results for `C[C@H](NC(=O)CNC(=O)[C@H](C)NC(=O)[C@@H]1CCCN1C(=O)CNC(=O)[C@@H](NC(=O)[C@H](CCCNC(N)=O)NC(=O)CNC(=O)[C@H](CCCNC(=N)N)NC(=O)[C@@H](N)CCC(=O)O)[C@@H](C)O)C(=O)N[C@@H](C)C(=O)NCC(=O)N[C@@H](C)C(=O)N[C@@H](CCCNC(=N)N)C(=O)NCC(=O)O` [ERGXTGPAGAAGARG] (H-ERG[Cit]TGPAGAAGARG-OH) are 3910 nM and above 40000 nM.
Turning to `CSCC[C@H](NC(=O)[C@H](CCC(=O)O)NC(=O)[C@H](CCCNC(N)=O)NC(=O)[C@H](CCSC)NC(=O)[C@H](CCC(N)=O)NC(=O)[C@H](CCCNC(=N)N)NC(=O)[C@@H](N)CCC(=O)O)C(=O)N[C@@H](CCC(=O)O)C(=O)N[C@@H](CCC(=O)O)C(=O)N[C@@H](CC(N)=O)C(=O)N[C@@H](Cc1ccccc1)C(=O)N[C@@H](C)C(=O)N[C@H](C(=O)N[C@@H](CCC(=O)O)C(=O)N[C@@H](C)C(=O)O)C(C)C` [ERQMXEMEENFAVEA] (H-ERQM[Cit]EMEENFAVEA-OH), the values for the half-inhibitory concentration (IC50) in test [1] (setting [5]) and in test [2] (setting [6]) were 9530 nM and 3220 nM, respectively.
On the same counts, the results for `CC(C)C[C@H](NC(=O)CNC(=O)[C@@H]1CCCN1C(=O)[C@H](Cc1ccccc1)NC(=O)CNC(=O)[C@H](CCCNC(N)=O)NC(=O)[C@@H](N)CCC(=O)O)C(=O)N1CCC[C@H]1C(=O)NCC(=O)N1CCC[C@H]1C(=O)N[C@@H](CO)C(=O)NCC(=O)N[C@@H](CCC(=O)O)C(=O)N1CCC[C@H]1C(=O)NCC(=O)O` [EXGFPGLPGPSGEPG] (H-E[Cit]GFPGLPGPSGEPG-OH) are 2210 nM and above 40000 nM.
As to `CC(C)C[C@H](NC(=O)CNC(=O)[C@H](CCCNC(N)=O)NC(=O)[C@@H](N)CCC(=O)O)C(=O)N[C@@H](CCCCN)C(=O)NCC(=O)N[C@@H](Cc1c[nH]cn1)C(=O)N[C@@H](CCCNC(=N)N)C(=O)NCC(=O)N[C@@H](Cc1ccccc1)C(=O)N[C@H](C(=O)NCC(=O)N[C@@H](CC(C)C)C(=O)N[C@@H](CCC(N)=O)C(=O)NCC(=O)O)[C@@H](C)O` [EXGLKGHRGFTGLQG] (H-E[Cit]GLKGHRGFTGLQG-OH), the IC50 is 96 nM in test [1] (setting [5]) and above 40000 nM in test [2] (setting [6]).
As to `C[C@H](NC(=O)CNC(=O)[C@H](C)NC(=O)[C@@H]1CCCN1C(=O)CNC(=O)[C@@H](NC(=O)[C@H](CCCNC(=N)N)NC(=O)CNC(=O)[C@H](CCCNC(N)=O)NC(=O)[C@@H](N)CCC(=O)O)[C@@H](C)O)C(=O)N[C@@H](C)C(=O)NCC(=O)N[C@@H](C)C(=O)N[C@@H](CCCNC(=N)N)C(=O)NCC(=O)O` [EXGRTGPAGAAGARG] (H-E[Cit]GRTGPAGAAGARG-OH), the IC50 in test [1] (setting [5]) was 1620 nM; in test [2] (setting [6]), above 40000 nM.
`CC[C@H](C)[C@H](NC(=O)[C@H](CCC(=O)O)NC(=O)[C@H](CCC(=O)O)NC(=O)[C@H](CCC(N)=O)NC(=O)[C@H](CC(C)C)NC(=O)[C@H](CO)NC(=O)[C@H](CCC(=O)O)NC(=O)[C@@H](NC(=O)[C@H](CCCCN)NC(=O)[C@H](CCCNC(N)=O)NC(=O)[C@@H](N)CCC(=O)O)C(C)C)C(=O)N[C@@H](C)C(=O)N[C@@H](Cc1ccccc1)C(=O)N[C@@H](CC(C)C)C(=O)N[C@@H](CCCCN)C(=O)O` [EXKVESLQEEIAFLK] (H-E[Cit]KVESLQEEIAFLK-OH): the figures for the concentration for half-maximal inhibition (IC50) in test [1] (setting [3]) and in test [2] (setting [4]) were 148 nM and above 40000 nM, respectively.
With `CSCC[C@H](NC(=O)[C@H](CCC(=O)O)NC(=O)[C@H](CCCNC(=N)N)NC(=O)[C@H](CCSC)NC(=O)[C@H](CCC(N)=O)NC(=O)[C@H](CCCNC(N)=O)NC(=O)[C@@H](N)CCC(=O)O)C(=O)N[C@@H](CCC(=O)O)C(=O)N[C@@H](CCC(=O)O)C(=O)N[C@@H](CC(N)=O)C(=O)N[C@@H](Cc1ccccc1)C(=O)N[C@@H](C)C(=O)N[C@H](C(=O)N[C@@H](CCC(=O)O)C(=O)N[C@@H](C)C(=O)O)C(C)C` [EXQMREMEENFAVEA] (H-E[Cit]QMREMEENFAVEA-OH), the concentration for half-maximal inhibition (IC50) in test [1] (setting [5]) came out at 5960 nM; in test [2] (setting [6]), 1160 nM.
On to `CC[C@H](C)[C@H](NC(=O)[C@H](CC(=O)O)NC(=O)[C@@H](NC(=O)[C@@H](NC(=O)[C@@H]1CCCN1C(=O)[C@H](CC(C)C)NC(=O)[C@H](CCCNC(N)=O)NC(=O)[C@H](CO)NC(=O)[C@@H](NC(=O)[C@H](CCCCN)NC(=O)[C@H](CCC(N)=O)NC(=O)[C@H](CO)NC(=O)[C@H](CCCNC(=N)N)NC(=O)[C@H](Cc1ccc(O)cc1)NC(=O)[C@@H](N)CCC(=O)O)[C@@H](C)O)[C@@H](C)CC)[C@@H](C)CC)C(=O)O` [EYRSQKTSXLPIIDI] (H-EYRSQKTS[Cit]LPIIDI-OH), for which the half-maximal inhibitory concentration (IC50) worked out at 6.9 nM in test [1] (setting [7]), 14 nM in test [1] (setting [8]), 316 nM in test [2] (setting [9]) and 314 nM in test [2] (setting [10]).
On the same counts, the results for `CC[C@H](C)[C@H](NC(=O)[C@H](CC(=O)O)NC(=O)[C@@H](NC(=O)[C@@H](NC(=O)[C@@H]1CCCN1C(=O)[C@H](CC(C)C)NC(=O)[C@H](CCCNC(=N)N)NC(=O)[C@H](CO)NC(=O)[C@@H](NC(=O)[C@H](CCCCN)NC(=O)[C@H](CCC(N)=O)NC(=O)[C@H](CO)NC(=O)[C@H](CCCNC(N)=O)NC(=O)[C@H](Cc1ccc(O)cc1)NC(=O)[C@@H](N)CCC(=O)O)[C@@H](C)O)[C@@H](C)CC)[C@@H](C)CC)C(=O)O` [EYXSQKTSRLPIIDI] (H-EY[Cit]SQKTSRLPIIDI-OH) are 5.9 nM, 14 nM, 473 nM and 314 nM.
As for `CC[C@H](C)[C@H](NC(=O)[C@@H](NC(=O)[C@H](CC(=O)O)NC(=O)[C@H](CCC(N)=O)NC(=O)[C@H](Cc1ccc(O)cc1)NC(=O)[C@H](CC(N)=O)NC(=O)[C@H](C)NC(=O)[C@H](C)NC(=O)[C@H](CCC(=O)O)NC(=O)[C@@H](NC(=O)[C@H](C)NC(=O)[C@@H](N)Cc1ccccc1)C(C)C)[C@@H](C)O)C(=O)NCC(=O)N[C@@H](CCCNC(N)=O)C(=O)N[C@@H](CC(C)C)C(=O)O` [FAVEAANYQDTIGXL] (H-FAVEAANYQDTIG[Cit]L-OH), the half-inhibitory concentration (IC50) was 642 nM in test [1] (setting [5]) and 768 nM in test [2] (setting [6]).
